Where two headings read alike, the source gives them in different places.
Assays:
HL-60(TB) = assay: SRB 48 h growth assay, Leukemia HL-60(TB); format: cell-based, human
K-562 = assay: SRB 48 h growth assay, Leukemia K-562; format: cell-based, human
RPMI-8226 = assay: SRB 48 h growth assay, Leukemia RPMI-8226; format: cell-based, human; details: RPMI-8226, Leukemia
A549/ATCC = assay: SRB 48 h growth assay, Non-small Cell Lung A549/ATCC; format: cell-based, human
NCI-H226 = assay: SRB 48 h growth assay, Non-small Cell Lung NCI-H226; format: cell-based, human
HCT-15 = assay: SRB 48 h growth assay, Colon HCT-15; format: cell-based, human; details: HCT-15, Colon
SW-620 = assay: SRB 48 h growth assay, Colon SW-620; format: cell-based, human; details: SW-620, Colon
SF-268 = assay: SRB 48 h growth assay, CNS SF-268; format: cell-based, human; details: SF-268, CNS
SF-539 = assay: SRB 48 h growth assay, CNS SF-539; format: cell-based, human; details: SF-539, CNS
SNB-19 = assay: SRB 48 h growth assay, CNS SNB-19; format: cell-based, human; details: SNB-19, CNS
SNB-75 = assay: SRB 48 h growth assay, CNS SNB-75; format: cell-based, human; details: SNB-75, CNS
MALME-3M = assay: SRB 48 h growth assay, Melanoma MALME-3M; format: cell-based, human
M14 = assay: SRB 48 h growth assay, Melanoma M14; format: cell-based, human
UACC-62 = assay: SRB 48 h growth assay, Melanoma UACC-62; format: cell-based, human; details: UACC-62, Melanoma
IGROV1 = assay: SRB 48 h growth assay, Ovarian IGROV1; format: cell-based, human
OVCAR-4 = assay: SRB 48 h growth assay, Ovarian OVCAR-4; format: cell-based, human; details: OVCAR-4, Ovarian
OVCAR-8 = assay: SRB 48 h growth assay, Ovarian OVCAR-8; format: cell-based, human; details: OVCAR-8, Ovarian
A498 = assay: SRB 48 h growth assay, Renal A498; format: cell-based, human
RXF393 = assay: SRB 48 h growth assay, Renal RXF393; format: cell-based, human
UO-31 = assay: SRB 48 h growth assay, Renal UO-31; format: cell-based, human; details: UO-31, Renal
DU-145 = assay: SRB 48 h growth assay, Prostate DU-145; format: cell-based, human; details: DU-145, Prostate
MDA-MB-231/ATCC = assay: SRB 48 h growth assay, Breast MDA-MB-231/ATCC; format: cell-based, human
T-47D = assay: SRB 48 h growth assay, Breast T-47D; format: cell-based, human
MDA-MB-468 = assay: SRB 48 h growth assay, Breast MDA-MB-468; format: cell-based, human; details: MDA-MB-468, Breast
[1] = system: six CNS cancer cell line (SF-268, SF-295, SF-539, SNB-19, SNB-75 and U251); assay: in vitro anticancer activity, CNS panel; format: cell-based; details: Homo sapiens; six CNS cancer cell lines, exposure at least 48 h; read-out: GI50, range over panel
[2] = system: two prostate cancer cell line (PC-3, DU-145); assay: in vitro anticancer activity, prostate panel; format: cell-based; details: Homo sapiens; two prostate cancer cell lines, exposure at least 48 h; read-out: GI50, range over panel
[3] = Homo sapiens, read-out: Growth Inhibition GI50
[4] = Homo sapiens, read-out: Log10 GI50 (converted)
[5] = Homo sapiens, read-out: Log10 LC50 (converted)

For `C#Cc1ccc(-n2c(/C=C/c3ccc(C(F)(F)F)cc3)nc3ncccc3c2=O)cc1` [4c, (E)-3-(4-Ethynylphenyl)-2-(4-(trifluoromethyl)styryl)pyrido[2,3-d]pyrimidin-4(3H)-one], the “Log10 TGI50” value (HL-60(TB)) was −5.22, the GI50 (HL-60(TB); [3]) was 2070 nM and the GI50 (HL-60(TB); [4]) was 2090 nM. The CC50 (HL-60(TB); [5]) was over 100000 nM, the GI50 (K-562; Homo sapiens, K562, K-562, Leukemia, read-out: Growth Inhibition GI50) was 2960 nM and the GI50 (K-562; Homo sapiens, K562, K-562, Leukemia, read-out: Log10 GI50 (converted)) was 2950 nM. For the same compound, the CC50 (K-562; Homo sapiens, K562, K-562, Leukemia, read-out: Log10 LC50 (converted)) was over 100000 nM, the “Log10 TGI50” value (K-562; K-562, Leukemia) was −5.06 and the GI50 (RPMI-8226; [3]) was 1390 nM. For the same compound, the GI50 (RPMI-8226; [4]) was 1380 nM, the CC50 (RPMI-8226; [5]) was over 100000 nM and the “Log10 TGI50” value (RPMI-8226) was −5.20. The “Log10 TGI50” value (A549/ATCC) was −5.34, the GI50 (A549/ATCC; [3]) was 1830 nM and the GI50 (A549/ATCC; [4]) was 1820 nM. The CC50 (A549/ATCC; [5]) was over 100000 nM, the “Log10 TGI50” value (NCI-H226) was −5.39 and the GI50 (NCI-H226; [3]) was 1990 nM. For the same compound, the GI50 (NCI-H226; [4]) was 2000 nM, the LC50 (NCI-H226; [5]) was 8510 nM and the “Log10 TGI50” value (HCT-15) was −5.43. The GI50 (HCT-15; [3]) was 1740 nM, the GI50 (HCT-15; [4]) was 1740 nM and the CC50 (HCT-15; [5]) was 7760 nM. The GI50 (SW-620; [3]) was 1920 nM, the GI50 (SW-620; [4]) was 1910 nM and the CC50 (SW-620; [5]) was 7410 nM. The “Log10 TGI50” value (SW-620) was −5.42, the GI50 (SF-268; [3]) was 2270 nM and the GI50 (SF-268; [4]) was 2290 nM. The CC50 (SF-268; [5]) was 24500 nM, the “Log10 TGI50” value (SF-268) was −5.23 and the GI50 (SF-539; [3]) was 1680 nM. For the same compound, the GI50 (SF-539; [4]) was 1660 nM, the CC50 (SF-539; [5]) was 6030 nM and the “Log10 TGI50” value (SF-539) was −5.50. The GI50 (SNB-19; [3]) was 1910 nM, the GI50 (SNB-19; [4]) was 1910 nM and the CC50 (SNB-19; [5]) was 9550 nM. The “Log10 TGI50” value (SNB-19) was −5.37, the GI50 (SNB-75; [3]) was 1810 nM and the GI50 (SNB-75; [4]) was 1820 nM. The CC50 (SNB-75; [5]) was 28200 nM, the “Log10 TGI50” value (SNB-75) was −5.14 and the “Log10 TGI50” value (MALME-3M) was −5.45. It also gave a GI50 (MALME-3M; [3]) of 1640 nM, a GI50 (MALME-3M; [4]) of 1660 nM and a CC50 (MALME-3M; [5]) of 7760 nM. For the same compound, the “Log10 TGI50” value (M14) was −5.37, the GI50 (M14; [3]) was 2070 nM and the GI50 (M14; [4]) was 2090 nM. The CC50 (M14; [5]) was 8710 nM, the GI50 (UACC-62; [3]) was 1620 nM and the GI50 (UACC-62; [4]) was 1620 nM. The CC50 (UACC-62; [5]) was 7940 nM, the “Log10 TGI50” value (UACC-62) was −5.44 and the “Log10 TGI50” value (IGROV1) was −5.40. It also gave a GI50 (IGROV1; Homo sapiens, IGROV-1, read-out: Growth Inhibition GI50) of 1960 nM, a GI50 (IGROV1; Homo sapiens, IGROV-1, read-out: Log10 GI50 (converted)) of 1950 nM and a CC50 (IGROV1; Homo sapiens, IGROV-1, read-out: Log10 LC50 (converted)) of 8320 nM. For the same compound, the GI50 (OVCAR-4; [3]) was 1580 nM, the GI50 (OVCAR-4; [4]) was 479 nM and the CC50 (OVCAR-4; [5]) was 6920 nM. For the same compound, the “Log10 TGI50” value (OVCAR-4) was −5.48, the GI50 (OVCAR-8; [3]) was 1870 nM and the GI50 (OVCAR-8; [4]) was 1860 nM. For the same compound, the CC50 (OVCAR-8; [5]) was 31600 nM, the “Log10 TGI50” value (OVCAR-8) was −5.33 and the “Log10 TGI50” value (A498) was −5.24. The GI50 (A498; [3]) was 2340 nM, the GI50 (A498; [4]) was 2400 nM and the CC50 (A498; [5]) was 24000 nM. For the same compound, the “Log10 TGI50” value (RXF393) was −5.42, the GI50 (RXF393; Homo sapiens, RXF 393, read-out: Growth Inhibition GI50) was 1790 nM and the GI50 (RXF393; Homo sapiens, RXF 393, read-out: Log10 GI50 (converted)) was 1780 nM. The CC50 (RXF393; Homo sapiens, RXF 393, read-out: Log10 LC50 (converted)) was 7940 nM, the GI50 (UO-31; [3]) was 1430 nM and the GI50 (UO-31; [4]) was 1450 nM. The CC50 (UO-31; [5]) was 9330 nM, the “Log10 TGI50” value (UO-31) was −5.44 and the “Log10 TGI50” value (DU-145) was −4.92. It also gave a GI50 (DU-145; [3]) of 3760 nM, a GI50 (DU-145; [4]) of 3720 nM and a CC50 (DU-145; [5]) of 38900 nM. The “Log10 TGI50” value (MDA-MB-231/ATCC) was −5.26, the GI50 (MDA-MB-231/ATCC; [3]) was 2050 nM and the GI50 (MDA-MB-231/ATCC; [4]) was 2040 nM. The CC50 (MDA-MB-231/ATCC; [5]) was 60300 nM, the “Log10 TGI50” value (T-47D) was −5.30 and the GI50 (T-47D; Homo sapiens, T47D, read-out: Growth Inhibition GI50) was 2020 nM. The GI50 (T-47D; Homo sapiens, T47D, read-out: Log10 GI50 (converted)) was 2000 nM, the CC50 (T-47D; Homo sapiens, T47D, read-out: Log10 LC50 (converted)) was 28200 nM and the GI50 (MDA-MB-468; [3]) was 1510 nM. For the same compound, the GI50 (MDA-MB-468; [4]) was 1510 nM, the CC50 (MDA-MB-468; [5]) was 8710 nM and the “Log10 TGI50” value (MDA-MB-468) was −5.44. The GI50 [1] was 2600 to 3690 nM and the GI50 [2] was 2350 to 7450 nM.

Reference: US9783537B2, “3-(4-ethylnylphenyl) pyridopyrimidinone compounds and process for preparation thereof useful as potential anticancer agents” (Council of Scientific & Industrial Research, priority 2013, dated 2017)
